This passage reports IC50 and Ki results from ChEMBL document CHEMBL3585326, “Discovery of potent carbonic anhydrase and acetylcholine esterase inhibitors: novel sulfamoylcarbamates and sulfamides derived from acetophenones” (Bioorg Med Chem, 2015).

Usually IC50 stands for the point on the concentration scale where inhibition reaches its midpoint. Read a high IC50 as weaker potency. One may read the Ki as the dissociation constant of the complex between target and ligand, obtained from inhibition or displacement. Low values mean higher affinity, high ones lower affinity.

The target in the assay is Acetylcholinesterase (Homo sapiens, UniProt P22303).
Sequence of Acetylcholinesterase (P22303 whole entry): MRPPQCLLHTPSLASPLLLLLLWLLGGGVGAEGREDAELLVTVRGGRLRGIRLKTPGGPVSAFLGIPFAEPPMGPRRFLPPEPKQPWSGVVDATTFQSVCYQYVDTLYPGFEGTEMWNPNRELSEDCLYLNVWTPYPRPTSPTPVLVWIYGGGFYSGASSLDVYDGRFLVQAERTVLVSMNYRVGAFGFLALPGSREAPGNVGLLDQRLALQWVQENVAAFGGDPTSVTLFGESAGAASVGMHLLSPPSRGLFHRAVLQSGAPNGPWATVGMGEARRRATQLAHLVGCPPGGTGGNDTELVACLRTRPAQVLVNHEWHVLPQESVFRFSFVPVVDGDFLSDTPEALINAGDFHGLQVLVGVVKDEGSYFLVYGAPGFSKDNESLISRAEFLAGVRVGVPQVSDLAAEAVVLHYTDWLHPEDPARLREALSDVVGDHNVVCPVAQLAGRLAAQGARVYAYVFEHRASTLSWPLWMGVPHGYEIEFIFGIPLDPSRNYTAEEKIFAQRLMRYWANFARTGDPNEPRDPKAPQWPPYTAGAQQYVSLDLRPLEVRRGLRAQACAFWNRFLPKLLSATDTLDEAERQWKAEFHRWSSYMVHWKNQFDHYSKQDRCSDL

Description: Inhibition of acetylcholinesterase (unknown origin) assessed as AChI hydrolysis using AChI and DTNB as substrate by Ellman's method

The compound `COc1ccc(C(C)NS(N)(=O)=O)cc1OC` (stereo not given) yielded an IC50 of 0.0269 nM and a Ki of 0.0049 nM.

As to `COc1ccc(OC)c(C(C)NS(N)(=O)=O)c1` (stereo not given), the IC50 is 0.0269 nM and the Ki was 0.0056 nM.

Compound `COc1ccccc1C(C)NS(=O)(=O)NC(=O)OCc1ccccc1` (stereo not given) returned an IC50 of 0.0269 nM and a Ki of 0.0056 nM.

`COc1cccc(OC)c1C(C)NS(N)(=O)=O` (stereo not given) came in with an IC50 of 0.0269 nM and a Ki of 0.0081 nM.

`COc1ccc(C(C)NS(N)(=O)=O)cc1` (stereo not given) displayed an IC50 of 0.0269 nM and a Ki of 0.0063 nM.

For `COc1ccc(C(C)NS(=O)(=O)NC(=O)OCc2ccccc2)cc1` (stereo not given), the IC50 was determined as 0.0269 nM and the inhibition constant Ki was found to be 0.0045 nM.

`COc1ccc(OC)c(C(C)NS(=O)(=O)NC(=O)OCc2ccccc2)c1` (stereo not given) returned an IC50 of 0.0269 nM and an inhibition constant (Ki) of 0.0229 nM.

The compound `COc1cccc(OC)c1C(C)NS(=O)(=O)NC(=O)OCc1ccccc1` (stereo not given) displayed an IC50 of 0.0269 nM and a Ki of 0.0105 nM.

`COc1ccccc1C(C)NS(N)(=O)=O` (stereo not given) had an IC50 of 0.0269 nM and an inhibition constant Ki of 0.0382 nM.

Compound `COc1ccc(C(C)NS(=O)(=O)NC(=O)OCc2ccccc2)cc1OC` (stereo not given) came in with an IC50 of 0.0269 nM and a Ki of 0.0051 nM.
